Consider eight molecules from patent publication US10603319B2, “Pyrimidine derivatives and their use in treating or preventing a respiratory syncytial virus infection” (REVIRAL LIMITED, priority 2016, dated 2020).

Holding throughout (type): cell-based
The target in one assay is T1, RSV A2_F (Human respiratory syncytial virus A, UniProt P03420).
T1 construct: expressed in transfected cells; host or cells: HEK 293T/17
Kind of assay: RSV fusion assay (luciferase reporter, HEK 293T/17 cells transfected with A2_F). To be noted: Fusion activity IC50 μM, HEK 293T/17 cells, 24 hr. How it is done: HEK 293T/17 cells were cultured in T75 culture flasks in Dulbecco's medium (DMEM) containing 10% FBS and 1× Penicillin-Streptomycin (Pen/Strep) and warmed to 37° C. prior to use. The cells were passaged by first washing briefly with 3 ml phosphate buffered saline (PBS) followed by a 4 min incubation with […] at 37° C. 7 ml media was then added to the flask and the cells dispersed via pipetting (×3) against the bottom of the flask. Two further T75 flasks were each seeded with 2×10^6 cells in 15 ml fresh media.
Cells were seeded on the T75 plates at the same density as on the 6-well plates the area of a T75 flask and one 1.75 cm radius well from a 6-well plate were compared. 7.79×2 ml of 3×10^5 cells ml^−1 was used to seed a single T75 flask.
HEK cells were removed from a T75 flask as described above. The cells were counted and diluted to 3×10^5 cells/ml in fresh media. Two T75 flasks were each seeded with 15.58 ml diluted cells.
The plasmid DNA (for pFR-Luc and pcDNA3.1_Gal4/NFκB) to be transfected into the HEK cells was first prepared in serum free media (DMEM+Pen/Strep) containing the transfection reagent Fugene 6 (Promega). Transfections were set up as follows (Luc=pFR_Luc, Gal4=pcDNA3.1+_Gal4/NFκB, A2_F=pcDNA3.1+_A2_F)
Serum free media was placed in a 1.5 ml eppendorf tube then the fugene 6 was added into the media. The tube was vortexed for 1 s before being incubated at RT for 5 min. The plasmid DNA was then added to the tube, vortexed for 1 s, then incubated at RT for 15 min
The transfection reagents were then added to the appropriate T75 flask by tipping the flask on end and adding the reagents directly to the media already in the flask. The flask was then tipped on its back so the media could be mixed thoroughly whilst not disturbing the cells before placing the flask the right way up and incubating overnight at 37° C. and 5% CO2.
Compounds were diluted (in a polypropylene round-bottomed 96 well plate) 1:3 in a twelve point dilution curve to give top [final] of either 3.3 μM, 1 μM, 500 nM 200 nM or 100 nM. The Control compound was always run at a concentration of 100 nM.
The cells were then counted and diluted to 4×10^5 cells/ml in fresh media. 50 μl of transfection population 1 cells were added to all wells of the assay plates. 100 μl diluted compound (2 rows per compound), standard curve (one row) and controls (100 nM RV (100% inhibition, four wells), DMSO (0% inhibition, eight wells)) were added to the appropriate wells. 50 μl of the diluted (4×10^5 cells/ml) transfection population 2 cells when then added to all wells.
The plates were then incubated for 24 hr at 37° C. and 5% CO2
Buffers were prepared for the luciferase assay (20 mM tricine, 10 mM MgSO4, 1 mM EDTA, 10 mM DTT) and lysis (25 mM tris-phosphate, 8 mM MgCl2, 1 mM DTT, 1% Triton X-100, 15% glycerol) and stored at −20° C.
Luminescence was measured as described:
Media was discarded into Virkon and the plates washed with 100 ul PBS per well. 20 ul/well of lysis buffer was added to each well and incubated shaking for 5 min at RT. Luciferin was added to LAAB at a dilution of 1:50 to give a working luciferin buffer. 100 μl working luciferin buffer was added to each well and luminescence was measured immediately. […]
(In general: A reporter such as luciferase makes a cellular process visible.)

The next assay relates to RSV A2 VR-1540. Description: Plaque Reduction Assay 2 (HEp-2 cells, virospot count). The conditions noted are these: human respiratory syncytial virus, 24 h; RSV A2, HEp-2 cells, 1 day. An excerpt: Plaque Reduction Assay 2:
This RSV plaque reduction assay is an infectivity assay which allows quantification of the number of infectious units in a distinct foci of RSV infection. This is indicated by zones of viral antigen detected by specific antibody staining within a monolayer of otherwise healthy tissue culture cells. As each plaque originates from a single infectious virus particle an accurate calculation of the anti-viral effect can be obtained by counting plaques in the presence and absence of an anti-viral compound. HEp-2 cells (ATCC, CCL23) were passaged in flasks and seeded in 96-well plates in DMEM containing antibiotics and supplemented with 10% FBS. During inoculation and subsequent incubation, cells were cultured in DMEM containing 3% FBS. 100 plaque forming unit (PFU)/well of RSV (RSV A2 VR-1540) was mixed with ten serial dilutions of compound. Subsequently, 100 μL of the virus/compound mixtures was added to confluent HEp-2 cell monolayers. The cells and virus/compound mixtures were incubated at 35° C. in a humidified 5% CO2 incubator for 1 day.
Cells were washed twice with PBS before adding 50% v/v EtOH/MeOH, and then stored at −20° C. On the day of the staining, fixative was first removed from the plates. Plates were washed 3× with PBS. A pre-titrated amount of the primary antibody was added in 60 μL PBS/2% milk powder, and plates incubated for 1 h at rt. The plates were washed 3× with PBS/0.05% Tween20 before addition of goat anti-mouse horse radish peroxidase in 60 μL PBS/2% milk powder, and incubated for 1 h at rt. Following three wash steps with PBS/0.05% Tween20, 60 μL ready-to-use TrueBlue was added and plates were incubated at rt for 10-15 min before adding MilliQ water. Plates were washed once with water, incubated for 30-60 min and after removal of water, air-dried in the dark.
Plates were scanned and analyzed using the Immunospot S6 UV analyzer, which is equipped with BioSpot analysis software for counting immunostained plaques (virospots). Plaque counts were used to calculate % infection relative to the mean of the spot count (SC) in the virus control wells for RSV. IC50/IC90 values were calculated as 50% or 90% reduction in signal, respectively, by interpolation of inhibition curves fitted with a 4-parameter nonlinear regression with a variable slope in GraphPad 5.0 (Prism).

For the next assay, the system named is RSV A2. Description: Plaque Reduction Assay 1 (Vero cells, immunostaining). The conditions noted are these: two replicate values, read-out: RSV Plaque Reduction assays A2 (PRNT1) (n = 2) IC50. The method, then: Plaque Reduction Assay 1: Vero cells were seeded in 96-well plates in a volume of 100 μL of Optimem supplemented with 3% FCS at a concentration of 4×10^4 cells per well. After an overnight incubation at 37° C. in a humidified 5% CO2 atmosphere, the monolayer of cells should be approximately 90% confluent. Antiviral compounds were titrated in pre-warmed Serum Free (SF) Optimem in a U-bottom 96 well plate. For compounds in a DMSO solution, titration in 100% DMSO was performed first and each concentration added individually to a 2× final concentration at 4% DMSO in SF media before mixing with virus (2% final DMSO with virus). Media was then removed from cells and replaced with PBS (100 μl/well). RSV stock was thawed and diluted in SF Optimem media to 4000 PFU/mLl. An equal volume of virus was added to compounds on the titration plate. PBS was removed from cells which were then inoculated with the virus/compound solution (50 μL/well). Cells were incubated for 2 h in a 37° C.+5% CO2 humidified incubator to allow infection. Inoculum was removed and media (Optimem+1% FCS) added to cells (100 μl/well). Cells were subsequently incubated for 48 h at 37° C.+5% CO2 in a humidified incubator. Immunostaining Procedure: Media was removed from cells and the monolayer washed with PBS. Cells were fixed with ice cold 80% Acetone in PBS (100 μl/well) for 20 mins at −20° C. Fixative was removed and cells are dried for 30 mins with plates inverted. Blocking solution (5% skim milk powder in PBS-T) was added to cells (150 μL/well) and plates were incubated for 30 mins at room temperature. Blocking solution was removed and plates washed once with PBS-T. Primary antibody in blocking solution was added to plates (50 μl/well) and incubated for 1 h at 37° C. Plates were then washed 3 times with PBS-T. Secondary antibody in blocking solution was added to plates ([…]) and incubated for 1 h at 37° C. in the dark. Plates were washed as above and then dried for 10 mins. Plates were scanned on the Odyssey Imager (Li-Cor Biosciences) at a resolution of […], medium quality and level 5 intensity in the […]. Data Analysis: Images obtained were saved and plaque numbers counted with the aid of computer imaging software. EC50 values for compounds were derived from dose response curves [three variable log(inhibitor) vs response] obtained using Graphpad Prism software.

[1] abbreviates: human respiratory syncytial virus, Vero.

Read-outs that look alike come from different tables or passages of the source.

T1 sequence (P03420 137-574): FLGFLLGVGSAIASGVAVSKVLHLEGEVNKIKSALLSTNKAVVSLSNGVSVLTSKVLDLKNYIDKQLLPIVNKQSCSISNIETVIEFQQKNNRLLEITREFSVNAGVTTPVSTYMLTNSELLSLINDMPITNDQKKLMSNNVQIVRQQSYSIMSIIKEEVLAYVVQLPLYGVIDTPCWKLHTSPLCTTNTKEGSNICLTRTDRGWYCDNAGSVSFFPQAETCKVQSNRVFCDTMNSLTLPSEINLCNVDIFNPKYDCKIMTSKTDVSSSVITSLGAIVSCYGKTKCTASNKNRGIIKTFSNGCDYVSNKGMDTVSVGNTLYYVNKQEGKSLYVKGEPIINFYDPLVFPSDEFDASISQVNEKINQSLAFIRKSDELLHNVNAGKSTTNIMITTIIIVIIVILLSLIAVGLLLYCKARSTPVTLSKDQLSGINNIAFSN
T1 sequence (P03420 26-109): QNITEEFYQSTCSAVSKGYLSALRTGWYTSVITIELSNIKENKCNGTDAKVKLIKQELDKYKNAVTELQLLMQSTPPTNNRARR

Usually IC50 stands for the point on the concentration scale where inhibition reaches its midpoint. For `CC(C)CNc1nc(N2CCC(N)C2)ncc1CN1C(=O)C2(CC2)c2ccc(F)cc21` (stereo not drawn) [Compound 5, 1′-((2-(3-Aminopyrrolidin-1-yl)-4-(isobutylamino)pyrimidin-5-yl)methyl)-6′-fluorospiro[cyclopropane-1,3′-indolin]-2′-one], the half-inhibitory concentration (IC50) amounted to 0.655 µM on RSV A2_F, 998 nM in the assay on RSV A2 VR-1540, 165 nM with RSV A2 (setting [1]) and 215 nM in the assay on RSV A2.

For the molecule `CC(C)CCNc1nc(N2CCC(N)C2)ncc1CN1C(=O)C2(CC2)c2ccc(F)cc21` (stereo not drawn) [Compound 1, 1′-((2-(3-Aminopyrrolidin-1-yl)-4-(isopentylamino)pyrimidin-5-yl)methyl)-6′-fluorospiro[cyclopropane-1,3′-indolin]-2′-one], the IC50 against RSV A2_F is 0.708 µM; in the assay on RSV A2 (setting [1]), 619 nM; in the assay with RSV A2 it was 316 nM.

Regarding `NC1CCN(c2ncc(CN3C(=O)C4(CC4)c4ccc(F)cc43)c(NCCCO)n2)C1` (stereo not drawn) [Compound 27, 1′-{[2-(3-Aminopyrrolidin-1-yl)-4-[(3-hydroxypropyl)amino]pyrimidin-5-yl]methyl}-6′-fluoro-1′,2′-dihydrospiro[cyclopropane-1,3′-indole]-2′-one], the IC50 against RSV A2_F was 1.09 µM; in the assay with RSV A2 VR-1540, 34 nM.

In the case of `NCCNc1ncc(CN2C(=O)C3(CC3)c3ccc(F)cc32)c(NCCCCO)n1` [Compound 25, 1′-({2-[(2-Aminoethyl)amino]-4-[(4-hydroxybutyl)amino]pyrimidin-5-yl}methyl)-6′-fluoro-1′,2′-dihydrospiro[cyclopropane-1,3′-indole]-2′-one], the IC50 on RSV A2_F was 0.212 µM; in the assay on RSV A2 VR-1540 it was 49 nM.

For the molecule `NC1CCN(c2ncc(CN3C(=O)C4(CC4)c4ccc(F)cc43)c(NCCCCO)n2)C1` (stereo not drawn) [Compound 4, 1′-((2-(3-Aminopyrrolidin-1-yl)-4-((4-hydroxybutyl)amino)pyrimidin-5-yl)methyl)-6′-fluorospiro[cyclopropane-1,3′-indolin]-2′-one], the IC50 against RSV A2_F stood at 0.452 µM; in the assay on RSV A2 VR-1540, 43 nM; with RSV A2 (setting [1]), 5.48 nM; in the assay with RSV A2, 9.3 nM.

With `NC1CCN(c2ncc(CN3C(=O)C4(CC4)c4ccc(F)cc43)c(NC3CCOCC3)n2)C1` (stereo not drawn) [Compound 10, 1′-((2-(3-Aminopyrrolidin-1-yl)-4-((tetrahydro-2H-pyran-4-yl)amino)pyrimidin-5-yl)methyl)-6′-fluorospiro[cyclopropane-1,3′-indolin]-2′-one], the IC50 on RSV A2_F stood at 0.184 µM; in the assay on RSV A2 VR-1540, 33 nM.

For `CCCNc1nc(N2CCC(N)C2)ncc1CN1C(=O)C2(CC2)c2ccc(F)cc21` (stereo not drawn) [Compound 28, 1′-{[2-(3-Aminopyrrolidin-1-yl)-4-(propylamino)pyrimidin-5-yl]methyl}-6′-fluoro-1′,2′-dihydrospiro[cyclopropane-1,3′-indole]-2′-one], the IC50 at RSV A2_F was 1.23 µM; in the assay with RSV A2 VR-1540, 63 nM.

`CCNc1nc(N2CCC(N)C2)ncc1CN1C(=O)C2(CC2)c2ccc(F)cc21` (stereo not drawn) [Compound 29, 1′-{[2-(3-Aminopyrrolidin-1-yl)-4-(ethylamino)pyrimidin-5-yl]methyl}-6′-fluoro-1′,2′-dihydrospiro[cyclopropane-1,3′-indole]-2′-one]: the IC50 against RSV A2_F stood at 1.17 µM; in the assay on RSV A2 VR-1540 it was 740 nM.
